Measured values: US8685924B2, “Preventives/remedies for stress urinary incontinence and method of screening the same” (Takeda Pharmaceutical Company Limited, priority 2004, dated 2014)
Several values for one entry are separate records, joined by “and”; a condition that tells them apart may be missing. Equal values may be shown once.

Experiments:
[1] = test system: urethane-anesthetized female rats; assay: Leak point pressure by abdominal wall-electrically stimulating method, serotonin 5-HT receptor agonists (Example 3); format: in vivo, rat; details: for leak point pressure after drug administration / leak point pressure increase / leak point pressure before drug administration: i.v., mean ± SEM; for leak point pressure before drug administration: baseline; for effect on leak point pressure: intravenous administration
Experimental: SD female rats (body weight 180-350 g) were anesthetized with urethane (Wako Pure Chemical Industries, Ltd.), and the spinal cord was transected at T8-9 level to eliminate the reflex voiding. In addition, the nerve to the iliococcygeus muscle/pubococcygeus muscle on the one side was transected. During operation, halothane (Takeda Pharmaceutical Company Limited) anesthesia was added when necessary. A catheter (PE-90, Clay Adams) was inserted into the bladder and secured with a ligature, and the incised part of each of the abdominal muscle and skin was closed with sutures. The abdominal skin near the diaphragm was incised at two left and right positions to newly expose the abdominal muscle. An Evans Blue dye (Merck) solution was injected into the bladder, and the bladder volume was adjusted to 0.2-0.3 ml. The bladder catheter was connected to a pressure transducer, and the signals of the transducer were sent to a computer via an amplifier (blood pressure amplification unit AP-641G; NIHON KOHDEN) and an analog-to-digital converter (BIOPAC; MP100), and recorded on a hard disc. The data were analyzed on a computer using software (BIOPAC; AcqKnowledge). The exposed abdominal muscle was electrostimulated using an electrostimulator (SEN-3301; NIHON KODEN) and an isolator (SS-202J; NIHON KODEN), and the presence or absence of incontinence from the meatus urethra was observed. The electrostimulation was applied at a voltage of 2.5-50 V, duration of 0.5 milisec, and frequency 50 Hz for 1 sec, thereby gradually increasing the intravesical pressure. The peak intravesical pressure during stimulation of the abdominal wall was measured and, of the trials with observed incontinence, the lowest peak intravesical pressure was defined as the leak point pressure. Serotonin 5-HT receptor agonist, WAY-161503 (5-HT2C receptor agonist), WAY-163909 (5-HT2C receptor agonist), DOI (5-HT2A/2B/2C receptor agonist), mCPP (5-HT2B/2C receptor partial agonist), eltoprazine (5-HT1A/1B/2C receptor partial agonist), 8-OH-DPAT (5-HT1A receptor agonist), sumatryptan (5-HT1B/1D receptor agonist) and BW723C86 (5-HT2B receptor agonist) were intravenously administered, and the leak point pressure was compared before and after the administration. DOI, mCPP and eltoprazine were dissolved in saline, and other drugs were dissolved in DMA/PEG400 (1:1), and they were intravenously administered at 1 ml/kg and 0.5 mg/kg, respectively. Depending on the experiment, RS-102221 (serotonin 5-HT2C receptor antagonist) or SB221284 (serotonin 5-HT2B/2C receptor antagonist) was intravenously administered 5 min before WAY-161503 or WAY-163909 administration, and an antagonistic effect against the WAY-161503 or WAY-163909-induced increment of the leak point pressure was examined. RS-102221 and SB221284 were both dissolved in DMA/PEG400 (1:1) and intravenously administered at 0.5 ml/kg.

[2] = test system: urethane-anesthetized female rats; assay: Leak point pressure by direct compressing of the bladder (Example 4); format: in vivo, rat; details: for leak point pressure after drug administration / leak point pressure increase / leak point pressure before drug administration: i.v., mean ± SEM; for leak point pressure after drug administration: 20 min later; for leak point pressure before drug administration: baseline; for effect on leak point pressure: intravenous administration
Experimental: SD female rats (body weight 180-350 g) were anesthetized with urethane (Wako Pure Chemical Industries, Ltd.), and halothane (Takeda Pharmaceutical Company Limited) anesthesia was added when necessary during operation.
The spinal cord was transected at T8-9 level to eliminate the reflex voiding. The lower abdomen was incised in the median line, a catheter for intravesical pressure measurement (PE-90, Clay Adams) was inserted into the bladder and secured with a ligature, and the intravesical pressure was measured via a pressure transducer. Urine was emptized in advance by bilaterally pressing the bladder with two swabs, and a 0.1% Evans blue (Merck) solution (0.4 mL) was injected into the bladder. The bladder was gradually compressed bilaterally with two swabs, and the intravesical pressure upon saline leakage from the urethral orifice was measured and defined as a leak point pressure. The measurement of the leak point pressure was repeated, and the average value of the final five stable measures was taken as the value before drug administration. Thereafter, the drug was intravenously administered, the leak point pressure was measured again 20 min later, and the value after the drug administration was determined. DOI, mCPP and eltoprazine were dissolved in saline, and other drugs were dissolved in DMA/PEG400 (1:1), and intravenously administered at 1 ml/kg and 0.5 mg/kg, respectively. Depending on the experiment, RS-102221 or SB221284 (showing serotonin 5-HT2C receptor antagonist activity) was administered, 5 min later, WAY-161503 or WAY-163909 was administered, leak point pressure was measured 10 min later, and a competitive assay with the action of WAY-161503 or WAY-163909 was performed. RS-102221 and SB221284 were both dissolved in DMA/PEG400 (1:1), and intravenously administered at 0.5 ml/kg.

CCCN(CCC)C1CCc2cccc(O)c2C1 (stereo not shown) [8OH-DPAT]
leak point pressure after drug administration ([1]; 0.3 mg/kg): 47.1 ± 9.4 cmH2O
leak point pressure increase ([1]; 0.3 mg/kg): −1.5 ± 1.2 cmH2O
leak point pressure before drug administration ([1]; dose group 0.3 mg/kg): 48.5 ± 9.6 cmH2O
effect on leak point pressure [1]: showed no effect

CC(N)Cc1c[nH]c2ccc(OCc3cccs3)cc12 (stereo not shown) [BW723C86]
leak point pressure after drug administration ([1]; 3 mg/kg): 48.9 ± 4.6 cmH2O
leak point pressure increase ([1]; 3 mg/kg): 2.5 ± 3.5 cmH2O
leak point pressure after drug administration ([1]; 10 mg/kg): 48.6 ± 3.2 cmH2O
leak point pressure increase ([1]; 10 mg/kg): −0.7 ± 3.9 cmH2O
leak point pressure before drug administration ([1]; dose group 3 mg/kg): 46.4 ± 5.6 cmH2O
leak point pressure before drug administration ([1]; dose group 10 mg/kg): 49.3 ± 6.5 cmH2O
effect on leak point pressure [1]: showed no effect

COc1cc(CC(C)N)c(OC)cc1I (stereo not shown) [DOI]
leak point pressure after drug administration ([1]; 0.01 mg/kg): 39.7 ± 5.2 cmH2O
leak point pressure increase ([1]; 0.01 mg/kg): 3.2 ± 3.3 cmH2O
leak point pressure after drug administration ([1]; 0.03 mg/kg): 50.1 ± 7.1 cmH2O
leak point pressure increase ([1]; 0.03 mg/kg): 5.9 ± 1.9 cmH2O
leak point pressure after drug administration ([1]; 0.1 mg/kg): 63.2 ± 5.7 cmH2O
leak point pressure increase ([1]; 0.1 mg/kg): 18.7 ± 2.9 cmH2O
leak point pressure after drug administration ([1]; 0.3 mg/kg): 67.9 ± 11.5 cmH2O
leak point pressure increase ([1]; 0.3 mg/kg): 27.2 ± 3.9 cmH2O
leak point pressure before drug administration ([1]; dose group 0.01 mg/kg): 36.4 ± 7.6 cmH2O
leak point pressure before drug administration ([1]; dose group 0.03 mg/kg): 44.2 ± 7.2 cmH2O
leak point pressure before drug administration ([1]; dose group 0.1 mg/kg): 44.5 ± 5.8 cmH2O
leak point pressure before drug administration ([1]; dose group 0.3 mg/kg): 40.7 ± 8.7 cmH2O
effect on leak point pressure [1]: increased the leak point pressure significantly
leak point pressure after drug administration ([2]; 0.01 mg/kg): 68.5 ± 5.7 cmH2O
leak point pressure increase ([2]; 0.01 mg/kg): 2.9 ± 2.0 cmH2O
leak point pressure after drug administration ([2]; 0.03 mg/kg): 71.1 ± 6.7 cmH2O
leak point pressure increase ([2]; 0.03 mg/kg): 6.2 ± 2.9 cmH2O
leak point pressure after drug administration ([2]; 0.1 mg/kg): 79.5 ± 2.6 cmH2O
leak point pressure increase ([2]; 0.1 mg/kg): 14.3 ± 2.8 cmH2O
leak point pressure after drug administration ([2]; 0.3 mg/kg): 85.7 ± 6.0 cmH2O
leak point pressure increase ([2]; 0.3 mg/kg): 18.7 ± 2.9 cmH2O
leak point pressure after drug administration ([2]; 1 mg/kg): 82.9 ± 3.6 cmH2O
leak point pressure increase ([2]; 1 mg/kg): 22.6 ± 2.5 cmH2O
leak point pressure before drug administration ([2]; dose group 0.01 mg/kg): 65.7 ± 6.3 cmH2O
leak point pressure before drug administration ([2]; dose group 0.03 mg/kg): 64.9 ± 5.4 cmH2O
leak point pressure before drug administration ([2]; dose group 0.1 mg/kg): 65.2 ± 3.6 cmH2O
leak point pressure before drug administration ([2]; dose group 0.3 mg/kg): 67.0 ± 4.3 cmH2O
leak point pressure before drug administration ([2]; dose group 1 mg/kg): 60.3 ± 3.5 cmH2O
effect on leak point pressure [2]: increased the leak point pressure significantly

c1cc2c3c(c1)[C@@H]1CCC[C@@H]1N3CCNC2 [WAY-163907]
leak point pressure after drug administration ([1]; 3 mg/kg): 47.4 ± 4.8 cmH2O
leak point pressure increase ([1]; 3 mg/kg): −4.8 ± 2.6 cmH2O
leak point pressure before drug administration ([1]; dose group 3 mg/kg): 52.2 ± 3.4 cmH2O
effect on leak point pressure [1]: showed no effect
leak point pressure after drug administration ([2]; 3 mg/kg): 57.0 ± 5.1 cmH2O
leak point pressure increase ([2]; 3 mg/kg): 1.9 ± 0.5 cmH2O
leak point pressure before drug administration ([2]; dose group 3 mg/kg): 55.1 ± 4.7 cmH2O
effect on leak point pressure [2]: showed no effect

c1cc2c(c(N3CCNCC3)c1)OCCO2 [eltoprazine]
leak point pressure after drug administration ([1]; 1 mg/kg): 55.2 ± 4.5 cmH2O
leak point pressure increase ([1]; 1 mg/kg): 6.1 ± 1.7 cmH2O
leak point pressure after drug administration ([1]; 3 mg/kg): 63.2 ± 5.6 cmH2O
leak point pressure increase ([1]; 3 mg/kg): 15.8 ± 3.1 cmH2O
leak point pressure before drug administration ([1]; dose group 1 mg/kg): 49.2 ± 5.2 cmH2O
leak point pressure before drug administration ([1]; dose group 3 mg/kg): 47.4 ± 5.5 cmH2O
effect on leak point pressure [1]: increased the leak point pressure significantly
leak point pressure after drug administration ([2]; 1 mg/kg): 76.7 ± 4.7 cmH2O
leak point pressure increase ([2]; 1 mg/kg): 8.0 ± 2.8 cmH2O
leak point pressure after drug administration ([2]; 3 mg/kg): 74.6 ± 2.3 cmH2O
leak point pressure increase ([2]; 3 mg/kg): 13.5 ± 1.0 cmH2O
leak point pressure before drug administration ([2]; dose group 1 mg/kg): 68.6 ± 6.1 cmH2O
leak point pressure before drug administration ([2]; dose group 3 mg/kg): 61.1 ± 2.4 cmH2O
effect on leak point pressure [2]: increased the leak point pressure significantly

Clc1cccc(N2CCNCC2)c1 [mCPP]
leak point pressure after drug administration ([1]; 0.01 mg/kg): 49.1 ± 6.4 cmH2O
leak point pressure increase ([1]; 0.01 mg/kg): 2.8 ± 2.1 cmH2O
leak point pressure after drug administration ([1]; 0.03 mg/kg): 52.3 ± 4.3 cmH2O
leak point pressure increase ([1]; 0.03 mg/kg): 14.6 ± 2.7 cmH2O
leak point pressure after drug administration ([1]; 0.1 mg/kg): 59.7 ± 6.6 cmH2O
leak point pressure increase ([1]; 0.1 mg/kg): 13.2 ± 2.8 cmH2O
leak point pressure before drug administration ([1]; dose group 0.01 mg/kg): 46.3 ± 5.8 cmH2O
leak point pressure before drug administration ([1]; dose group 0.03 mg/kg): 37.7 ± 4.0 cmH2O
leak point pressure before drug administration ([1]; dose group 0.1 mg/kg): 46.5 ± 6.1 cmH2O
effect on leak point pressure [1]: increased the leak point pressure significantly
leak point pressure after drug administration ([2]; 0.003 mg/kg): 67.0 ± 5.3 cmH2O
leak point pressure increase ([2]; 0.003 mg/kg): 4.1 ± 2.1 cmH2O
leak point pressure after drug administration ([2]; 0.01 mg/kg): 69.3 ± 3.4 cmH2O
leak point pressure increase ([2]; 0.01 mg/kg): 6.3 ± 2.3 cmH2O
leak point pressure after drug administration ([2]; 0.03 mg/kg): 73.8 ± 7.1 cmH2O
leak point pressure increase ([2]; 0.03 mg/kg): 11.6 ± 3.1 cmH2O
leak point pressure after drug administration ([2]; 0.1 mg/kg): 76.7 ± 4.0 cmH2O
leak point pressure increase ([2]; 0.1 mg/kg): 13.6 ± 2.5 cmH2O
leak point pressure after drug administration ([2]; 0.3 mg/kg): 71.1 ± 7.1 cmH2O
leak point pressure increase ([2]; 0.3 mg/kg): 5.4 ± 2.2 cmH2O
leak point pressure before drug administration ([2]; dose group 0.003 mg/kg): 62.9 ± 5.0 cmH2O
leak point pressure before drug administration ([2]; dose group 0.01 mg/kg): 63.0 ± 2.7 cmH2O
leak point pressure before drug administration ([2]; dose group 0.03 mg/kg): 62.2 ± 4.4 cmH2O
leak point pressure before drug administration ([2]; dose group 0.1 mg/kg): 63.1 ± 3.9 cmH2O
leak point pressure before drug administration ([2]; dose group 0.3 mg/kg): 65.7 ± 7.8 cmH2O
effect on leak point pressure [2]: increased the leak point pressure significantly

CNS(=O)(=O)Cc1ccc2[nH]cc(CCN(C)C)c2c1 [sumatryptan]
leak point pressure after drug administration ([1]; 1 mg/kg): 42.2 ± 2.0 cmH2O and 44.9 ± 9.1 cmH2O
leak point pressure after drug administration ([1]; 3 mg/kg): 54.4 ± 7.5 cmH2O
leak point pressure increase ([1]; 3 mg/kg): 1.5 ± 2.6 cmH2O
leak point pressure before drug administration ([1]; dose group 1 mg/kg): 44.2 ± 2.6 cmH2O and 43.2 ± 8.3 cmH2O
leak point pressure before drug administration ([1]; dose group 3 mg/kg): 52.9 ± 7.8 cmH2O
effect on leak point pressure [1]: showed no effect
